Molecules are shown by their SMILES.

Consider 46 molecules from ChEMBL document CHEMBL1641554, “Synthesis and SAR study of diphenylbutylpiperidines as cell autophagy inducers” (Bioorg Med Chem Lett, 2011).

This assay concerns H4. The experiment in a line: Induction of autophagy in human H4 cells expressing LC3 using DAPI staining after 4 hrs by fluorescence microscopic analysis. In kind it is functional, cell-based. The conditions noted are these: H4, 4 h.
With `N#CC(CCCN1CCC2(CC1)C(=O)NCN2c1ccccc1)(c1ccccc1)c1ccccc1`, it took 14.8 µM to reach a half-maximal effect (EC50).

On to `O=C1NCN(c2ccccc2)C12CCN(CCCN(c1ccccc1)c1ccccc1)CC2`, for which it took 24.9 µM to reach a half-maximal effect (EC50).

Turning to `O=C1NCN(c2ccccc2)C12CCN(CCC=C(c1ccc(F)cc1)c1ccc(F)cc1)CC2`, the response was half-maximal at 6.2 µM (EC50).

`O=C(CCC(c1ccc(F)cc1)c1ccc(F)cc1)N1CCC2(CC1)C(=O)NCN2c1ccccc1`: the EC50 (in general, the concentration giving half of the maximal effect) is greater than 50 µM.

Take `O=C1NCN(c2ccccc2)C12CCN(CCCC(O)c1ccc(F)cc1)CC2` (stereo unspecified): the EC50 is greater than 50 µM.

The molecule `O=C1NCN(c2ccccc2)C12CCN(CC/C=C\c1ccc(F)cc1)CC2` had an EC50 greater than 50 µM.

`O=C1NCN(c2ccccc2)C12CCN(CCCCC(c1ccc(F)cc1)c1ccc(F)cc1)CC2` came in with a concentration for a half-maximal effect (EC50) of 4.7 µM.

`O=C1NCN(c2ccccc2)C12CCN(CCC(c1ccc(F)cc1)c1ccc(F)cc1)CC2` showed an EC50 of 2.1 µM.

For `O=C1NCN(c2ccccc2)C12CCN(CCCC(c1ccccc1)c1ccccc1)CC2`, the EC50 stood at 34.6 µM.

Regarding `O=C1NCN(c2ccccc2)C12CCN(CCCC(c1ccc(Cl)cc1)c1ccc(Cl)cc1)CC2`, the concentration for a half-maximal effect (EC50) worked out at 4.2 µM.

In the case of `O=C1NCN(c2ccccc2)C12CCN(CCCC(c1ccc(C(F)(F)F)cc1)c1ccc(C(F)(F)F)cc1)CC2`, the EC50 was determined as 3.7 µM.

For the molecule `Cc1ccc(C(CCCN2CCC3(CC2)C(=O)NCN3c2ccccc2)c2ccc(C)cc2)cc1`, the EC50 stood at 3.1 µM.

With `COc1ccc(C(CCCN2CCC3(CC2)C(=O)NCN3c2ccccc2)c2ccc(OC)cc2)cc1`, the EC50 is 4.6 µM.

With `OC1(c2ccc(Cl)c(C(F)(F)F)c2)CCN(CCCC(c2ccc(OC(F)(F)F)cc2)c2ccc(OC(F)(F)F)cc2)CC1`, the midpoint of the response, the EC50, lay at 0.97 µM.

Regarding `OC1(c2ccc(Cl)c(C(F)(F)F)c2)CCN(CCCC(c2cccc(F)c2)c2cccc(F)c2)CC1`, the EC50 was 2.2 µM.

For the molecule `OC1(c2ccc(Cl)c(C(F)(F)F)c2)CCN(CCCC(c2cccc(C(F)(F)F)c2)c2cccc(C(F)(F)F)c2)CC1`, it took 0.65 µM to reach a half-maximal effect (EC50).

The molecule `Cc1cccc(C(CCCN2CCC(O)(c3ccc(Cl)c(C(F)(F)F)c3)CC2)c2cccc(C)c2)c1` had a 50% effective concentration (EC50) of 0.29 µM.

On to `O=C1NCN(c2ccccc2)C12CCN(C1c3ccccc3Sc3ccccc31)CC2`, for which the EC50 is greater than 50 µM.

Take `OC1(c2ccc(C(F)(F)F)c(Cl)c2)CCN(C2c3ccccc3-c3ccccc32)CC1`: the EC50 was found to be 2.6 µM.

`OC1(c2ccc(C(F)(F)F)c(Cl)c2)CCN(C2c3ccccc3Sc3ccccc32)CC1`: a half-maximal response (EC50) required 14.4 µM. Compared with the last molecule, the EC50 is about 5.5-fold higher.

The molecule `OC1(c2ccc(C(F)(F)F)c(Cl)c2)CCN(C2c3ccccc3CCc3ccccc32)CC1` displayed an EC50 of 2.6 µM.

Molecule `CN1CCN(CCCC(c2ccc(F)cc2)c2ccc(F)cc2)CC1` came in with an EC50 greater than 50 µM.

`OCCN1CCN(CCCC(c2ccc(F)cc2)c2ccc(F)cc2)CC1` yielded an EC50 greater than 50 µM.

The molecule `Fc1ccc(C(CCCN2CCN(c3ccc(Cl)cc3)CC2)c2ccc(F)cc2)cc1` gave an EC50 greater than 50 µM.

In turn, `Fc1ccc(C(CCCN2CCOCC2)c2ccc(F)cc2)cc1` showed an EC50 greater than 50 µM.

`Cc1ccc(C2=CCN(CCCC(c3ccc(F)cc3)c3ccc(F)cc3)CC2)cc1` displayed an EC50 greater than 50 µM.

With `Cc1ccc(C2CCN(CCCC(c3ccc(F)cc3)c3ccc(F)cc3)CC2)cc1`, the concentration giving a half-maximal response (EC50) was greater than 50 µM.

The molecule `Cc1ccc(C2(O)CCN(CCCC(c3ccc(F)cc3)c3ccc(F)cc3)CC2)cc1` showed an EC50 of 6.4 µM. This lies in the single-digit micromolar range.

In turn, `CC(=O)OC1(c2ccc(C)cc2)CCN(CCCC(c2ccc(F)cc2)c2ccc(F)cc2)CC1` displayed an EC50 of 4.4 µM.

The molecule `CC(=O)NC1(c2ccc(C)cc2)CCN(CCCC(c2ccc(F)cc2)c2ccc(F)cc2)CC1` displayed an EC50 of 2.2 µM.

With `N#CC1(c2ccccc2)CCN(CCCC(c2ccc(F)cc2)c2ccc(F)cc2)CC1`, the half-maximal effective concentration (EC50) was 10.5 µM.

In turn, `OC1(c2ccc(Cl)c(C(F)(F)F)c2)CCN(CCC=C(c2ccc(F)cc2)c2ccc(F)cc2)CC1` returned an EC50 of 4.3 µM.

In turn, `O=C(CCC(c1ccc(F)cc1)c1ccc(F)cc1)N1CCC(O)(c2ccc(Cl)c(C(F)(F)F)c2)CC1` returned a concentration giving a half-maximal response (EC50) greater than 50 µM.

`OC1(c2ccc(Cl)c(C(F)(F)F)c2)CCN(CCCCC(c2ccc(F)cc2)c2ccc(F)cc2)CC1`: a half-maximal effect (EC50) was put at 2.7 µM.

`OC1(c2ccc(Cl)c(C(F)(F)F)c2)CCN(CCC(c2ccc(F)cc2)c2ccc(F)cc2)CC1` gave an EC50 of 4.5 µM.

`OC1(c2ccc(Cl)c(C(F)(F)F)c2)CCN(CCCC(c2ccccc2)c2ccccc2)CC1`: the response was half-maximal at 5.1 µM (EC50).

`OC1(c2ccc(Cl)c(C(F)(F)F)c2)CCN(CCCC(c2ccc(Cl)cc2)c2ccc(Cl)cc2)CC1`: the EC50 was 2.4 µM.

In turn, `OC1(c2ccc(Cl)c(C(F)(F)F)c2)CCN(CCCC(c2ccc(C(F)(F)F)cc2)c2ccc(C(F)(F)F)cc2)CC1` displayed a concentration for a half-maximal effect (EC50) of 0.28 µM.

Consider `Cc1ccc(C(CCCN2CCC(O)(c3ccc(Cl)c(C(F)(F)F)c3)CC2)c2ccc(C)cc2)cc1`, for which the concentration for a half-maximal effect (EC50) is 0.29 µM.

`COc1ccc(C(CCCN2CCC(O)(c3ccc(Cl)c(C(F)(F)F)c3)CC2)c2ccc(OC)cc2)cc1` had an EC50 of 1.2 µM.

In turn, `O=C1NCN(c2ccccc2)C12CCN(C1c3ccccc3-c3ccccc31)CC2` displayed an EC50 of 7.9 µM.

As for `O=C1NCN(c2ccccc2)C12CCN(C1c3ccccc3CCc3ccccc31)CC2`, the EC50 is 5.1 µM.

`N#CC(CCCN1CCC(O)(c2ccc(Cl)c(C(F)(F)F)c2)CC1)(c1ccccc1)c1ccccc1` came in with an EC50 of 3.2 µM. This EC50 is about 1.6-fold lower than that of the molecule before.

`O=C1NCN(c2ccccc2)C12CCN(CCCCc1ccc(F)cc1)CC2` came in with an EC50 greater than 50 µM.

Take `O=C1NCN(c2ccccc2)C12CCN(CCCC(c1ccc(F)cc1)c1ccc(F)cc1)CC2` [FLUSPIRILENE]: a half-maximal response (EC50) required 2.4 µM.

Consider `OC1(c2ccc(Cl)c(C(F)(F)F)c2)CCN(CCCC(c2ccc(F)cc2)c2ccc(F)cc2)CC1` [PENFLURIDOL], for which it took 3.2 µM to reach a half-maximal effect (EC50).
